What was measured:
[1] = tested on: MDA-MB-436 cells; assay: Flow cytometry of surface PD-L1 on tumor cells treated with DR5 agonist antibodies (FIG. 20B); assay type: cell-based, human
Procedure: FIGS. 20A-20C. (FIG. 20A) 3 biological replicates of total PD-L1 and GAPDH from triple negative breast cancer cell (MDAMB-436) and ovarian cell (OVCAR-3) lysates treated with lexatumumab for 6 hours. (FIG. 20B) Raw mean fluorescent intensity (MFI) and % positive PD-L1 counts from the cells treated with indicated DR5 agonist antibodies. MFI values are shown on the top of solid color bars. There are multiple instances (shown on the top) where despite having lower % positive PD-L1 population, MFI values were higher after indicated DR5 agonist treatments. As an example, in MDA-MB-436 cells treated with tigatuzumab and lexatumumab, lexatumumab treated cells had higher % positive PD-L1 population (9.32 vs 11.97), however MFI was higher in tigatuzumab treated population (107.54 vs 45.87). (FIG. 20C) KMTR2 treated (50 μg, 4 doses) UCD52 TNBC PDX tumors were stained for PD-L1 using immunohistochemistry (IHC). 3 additional representative images are shown. Also see FIG. 1L.
(§1) Flow cytometry. The cell surface expression of PD-L1, CD47, huDR5, muDR5, CD8, CD4, CD25 etc. was analyzed by flow cytometry. Overnight grown tumors were trypsinized and suspended in FACS buffer (PBS containing 2% FBS). Single cell suspensions were then incubated with primary DR4/DR5 antibodies for 1 hour at 4° C. with gentle mixing. Following wash with FACS buffer, the cells were then incubated with fluorescently labeled anti-Rabbit antibody for 1 hour. Cells were washed and flow cytometry was performed using a BD FACSCALIBUR™ flow cytometer. The data was analyzed by FCS Express (De Novo Software, Los Angeles, California, United States of America) and FlowJo.
PD-L1 surface expression analysis of tumor derived cells. The cell surface expression of PD-L1 from tumor-derived cell was analyzed by flow cytometry. Isolated cells were suspended in FACS buffer (PBS containing 1% FBS). The single cell suspension was then incubated with primary PD-L1 antibodies (1:400 dilution) for 1 hour at 4° C. with gentle mixing. […] Following 3 times wash with FACS buffer, the cells were then incubated with fluorescently labeled (alexa 488) anti-Rabbit secondary antibody for 1 hour. Cells were then washed 3-4 times with FACS buffer and flow cytometry was performed using BD FACSCALIBUR™. The data was analyzed by FCS Express (De Novo Software) and FlowJo software.

[2] = tested on: chi-G4S-DR5 stable 4T1 tumors; assay: Surface PD-L1 flow cytometry of cells recovered from Chi-G4S-DR5 stable 4T1 tumors; assay type: in vivo, mouse; conditions: 4 doses; flow cytometry of recovered tumors (FIGS. 5G, 23)
Excerpt: Mechanical dissociation of tumors to obtain single-cell suspensions. Viable single cells from tumor tissues were isolated as described in Leelatian et al, 2017. Briefly, after indicated antibody treatments (4-6 doses) mice were euthanized and tumors were harvested using sterile scissors and forceps. After excision of tumor, they were minced into small pieces in sterile RPMI-1640 media using two single-edged razor blades. Small tumor pieces were passed through a 70 µm cell strainer in sterile RPMI-1640 media. A rubber plunger and syringe were used to mesh the dissociated cells through the cell strainer and media containing dissociated cells was collected onto a sterile labeled conical tube. Dissociated tumor cells were subjected to flow cytometry (FACS) analysis for PD-L1, DR5, N-cadherin, FOLR1, CD47 etc. surface expression as described under flow cytometry protocol.
PD-L1 surface expression analysis of tumor derived cells. The cell surface expression of PD-L1 from tumor-derived cell was analyzed by flow cytometry. Isolated cells were suspended in FACS buffer (PBS containing 1% FBS). […] The data was analyzed by FCS Express (De Novo Software) and FlowJo software.
Chimeric DR5 cloning and Human DR5 agonist testing studies in Balb/c animals. […] Tumors were monitored as described herein above. […]

[3] = tested on: DR5; assay: DR5 knockout (DR5-KO) versus DR5-WT TNBC cells: viability, PD-L1, S5a, ubiquitin; assay type: cell-based, human; conditions: for overall ubiquitin signal in lysates: DR5 sensitive versus DR5-KO cells (FIG. 2P)
Procedure: In Vitro Cell Viability Assays. Cell viability following Apo2L, lexatumumab, KMTR2, tigatuzumab, AMG-655, MD5-1, avelu-MD5, etc. treatments as indicated in the Figures either alone in combination with inhibitors (ROCK1, ERK, caspase inhibitors, etc.) or in combination with an anti-Fc reagent (For tigatuzumab, AMG-655, MD5-1, etc.) were determined using the ALAMARBLUE™ cell viability assays and MTT cell proliferation assays as per the manufacturer's protocols (ThermoFisher Scientific). Briefly, cells were treated with increasing concentration of various antibodies as indicated along with relevant positive and negative control antibodies for 6 hours, 24 hours, or 48 hours as indicated. For each cell killing assay the figures show the representative profiles from n=2-4 with different cultured confluency. Whenever used for immunoblotting, following antibodies treatment caspase-3 processing in tumor cells was monitored using selective antibodies that recognize cleaved human caspase-3 or total caspase-3 (Catalog Nos. 9661 and 9668; Cell Signaling Technology, Danvers, Massachusetts, United States of America). TRAIL-R2 receptor in oligomerization was determined using immunoblotting assays (Cell Signaling Technology Rabbit mAb, Catalog No. 8074). Cell viability was additionally examined by flow cytometry based apoptotic detection methods using 7-aminoactinomycin D (7-ADD) exclusion from live cells.
Western Blotting. Cells were cultured overnight in tissue culture-treated 6-well plates prior to treatment. After antibody treatment for 48 hours or another indicated time, cells were rinsed with PBS and then lysed with RIPA buffer supplemented with protease inhibitor cocktail (ThermoFisher Scientific). Centrifugation at 14000 rpm for 30 minutes cleared lysates and protein was quantified by PIERCE™ BCA Protein Assay Kit (ThermoFisher Scientific). Western blotting was performed using the Bio-Rad SDS-PAGE Gel system. Briefly, 30 μg of protein was resolved on 10% Bis-Tris gels and then transferred onto PVDF membrane. Membranes were blocked for one hour at room temperature in TBS+0.1% Tween (TBST) with 5% non-fat dry milk. Membranes were probed overnight at 4° C. with primary antibodies. Membranes were washed three times in TBST and then incubated with anti-rabbit or anti-mouse secondary antibodies (1/10,000 dilution, coupled to peroxidase) for 1 hour at room temperature. Membranes were then washed three times with TBST and immunocomplexes were detected with SUPERSIGNAL™ West Pico Chemiluminescent Substrate (ThermoFisher Scientific). […]
Flow cytometry. The cell surface expression of PD-L1, CD47, huDR5, muDR5, CD8, CD4, CD25 etc. was analyzed by flow cytometry. […] The data was analyzed by FCS Express (De Novo Software, Los Angeles, California, United States of America) and FlowJo. […]

[4] = tested on: PD-L1; assay: Western blotting / flow cytometry of PD-L1 and regulators in tumor cells; assay type: cell-based, human; conditions: ovarian and TNBC tumor cells
Procedure: Western Blotting. Cells were cultured overnight in tissue culture-treated 6-well plates prior to treatment. After antibody treatment for 48 hours or another indicated time, cells were rinsed with PBS and then lysed with RIPA buffer supplemented with protease inhibitor cocktail (ThermoFisher Scientific). Centrifugation at 14000 rpm for 30 minutes cleared lysates and protein was quantified by PIERCE™ BCA Protein Assay Kit (ThermoFisher Scientific). Western blotting was performed using the Bio-Rad SDS-PAGE Gel system. Briefly, 30 μg of protein was resolved on 10% Bis-Tris gels and then transferred onto PVDF membrane. Membranes were blocked for one hour at room temperature in TBS+0.1% Tween (TBST) with 5% non-fat dry milk. Membranes were probed overnight at 4° C. with primary antibodies. Membranes were washed three times in TBST and then incubated with anti-rabbit or anti-mouse secondary antibodies (1/10,000 dilution, coupled to peroxidase) for 1 hour at room temperature. Membranes were then washed three times with TBST and immunocomplexes were detected with SUPERSIGNAL™ West Pico Chemiluminescent Substrate (ThermoFisher Scientific). Images were taken using a Bio-Rad Gel Doc Imager system.
as §1

[5] = tested on: DR5-KO (MDA-MB-231) cells; assay: ApoEV isolation and PD-L1 transfer to DR5-KO cells; assay type: cell-based, human; conditions: ApoEVs from treated DR5-WT cells
Procedure: FIG. 12. TNF-α stabilized PD-L1 is not shuttled to ApoEVs. ApoEVs were isolated from DR5-WT MDA-MB-436 and OVCAR-3 cells after treatment with IgG1, TNF-α and lexatumumab. Isolated ApoEVs were incubated on to DR5-KO (MDA-MB-231) cells. After 24 hours surface PD-L1 of DR5-KO cells was analyze by flow cytometry. Top panel show secondary antibody control, IgG1 treatment control and basal level PD-L1 levels on MDA-MB-231 DR5 KO cells.
ApoEV isolation. 4×10^6 cells were seeded onto 3×150 mm dishes in a total volume of 45 ml of DMEM supplemented with 10% exosome-free FBS and grown for 12 hours. Media of each plate was changed with serum-free medium and incubate the cells at 37° C. for 6-12 hours, with or without various antibody treatments. For all ApoEV studies, the tissue culture media was spun at 8000×g for 15 minutes. The pellet was discarded and the supernatants (SN) were passed through 0.22 um filter. ApoEVs were isolated by the ultracentrifugation method. Collected tissue culture media was spun at 5,000×g for 10 minutes to remove contaminating cellular particles, and the resulting supernatant was spun at 80,000×g for 4 hours at 4° C. to pellet ApoEVs. ApoEV pellets were resuspended in 500 μl of serum-free medium and were used for either cellular treatments, dot blots assays and immunoblotting assays.

[6] = tested on: UCD52 TNBC PDX tumors; assay: PD-L1 IHC of KMTR2 treated UCD52 TNBC PDX tumors; assay type: in vivo, mouse; conditions: KMTR2 50 μg, 4 doses; NSG mice

Sequence of DR5 (O14763 56-184 limits assumed): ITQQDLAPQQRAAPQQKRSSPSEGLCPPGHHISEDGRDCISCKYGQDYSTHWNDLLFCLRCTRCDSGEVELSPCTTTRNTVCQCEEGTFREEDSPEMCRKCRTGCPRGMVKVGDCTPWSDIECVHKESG

Substance | PD-L1 mean fluorescent intensity (MFI) ([1]; MDA-MB-436 cells treated with DR5 agonist antibody (FIG. 20B)) | % positive PD-L1 population ([1]; MDA-MB-436 cells treated with DR5 agonist antibody, raw flow cytometry counts (FIG. 20B)) | PD-L1 on cell surface of tumor cells [2] | overall ubiquitin signal in lysates [3] | PD-L1 and CSN5 stabilization in lysates [4] | PD-L1 stabilization / surface mobilization in DR5-KO lines ([3]; DR5-KO compared to DR5-WT cells) | S5a/PSMD4 levels ([3]; MDA-MB-436 WT and DR5-KO cells) | PD-L1 in ApoEVs / shuttling of PD-L1 via ApoEVs [5] | PD-L1 stabilization by IHC [6]
lexatumumab: Monospecific Antibody, Human DR5 activator; VL and VH SEQ ID NOs: 1 and 2 | 45.87 | 11.97% | higher overall PD-L1 on cell surface | increased only in DR5 sensitive cell lysates |  |  |  |  | 
TNF-α |  |  |  |  | stabilized both PD-L1 and CSN5 | remained unchanged | stabilized PD-L1 without affecting S5a levels | did not shuttle significant amount of PD-L1 via ApoEVs | 
KMTR2: Monospecific Antibody, Human DR5 activator; VL and VH SEQ ID NOs: 7 and 8 |  |  |  | increased only in DR5 sensitive cell lysates |  |  |  |  | PD-L1 stabilization was also confirmed

Reference: patent publication US20230391881A1, “COMPOSITIONS AND METHODS FOR OVERCOMING DR5-INDUCED IMMUNE EVASION BY SOLID TUMORS” (University of Virginia Patent Foundation, priority 2020, published 2023)
